From patent publication US5444151A, “Platelet derived growth factor antagonists” (Ludwig Institute for Cancer Research, priority 1992, dated 1995)
Entries after “also recorded” stand apart in the source; their conditions may differ. Numbered stars: 1 amine (or outer) side, 2 acyl side, 3 side chain; on linkers, the order of the positions; unused ones are H or OH. Square brackets hold non-standard residues; d marks the D form. Peptide text beside a SMILES is read from it. X1 = CSc1ccc(-c2[nH]c3ccccc3c2C[C@H](N[*:1])C(=O)[*:2])cc1

Assays:
PDGF-β receptor [1] = target: T1, PDGF-β receptor (Homo sapiens, UniProt P09619); test: Competition with 125I-PDGF-BB for binding to AG1518 fibroblasts (α receptor down regulated by PDGF-AA preincubation); conditions: AG1518 cells, competing activity
T1 construct: cultures of human foreskin fibroblast cell line AG1518; endogenous in cells; host or cells: AG1518 human foreskin fibroblasts (Human Mutant Cell Repository)
Procedure: (§1) In order to test for receptor binding, cultures of human foreskin fibroblast cell line AG1518 (obtained from the Human Mutant Cell Repository), were grown to confluence in Ham's F-12 medium containing 10% newborn calf serum. Those cells which were to be used in analysis of PDGF-β receptor binding were preincubated for 60 minutes at 37° C. in 0.5 ml/well of Ham's F-12 medium, supplemented with 1 mg/ml of bovine serum albumin (BSA), and 50 ng/ml of PDGF-AA. This combination down regulates PDGF-α receptor, as per Claesson-Welsh et al., J. Biol. Chem. 264: 1742-1747 (1989).
(§2) Cells were prepared for receptor binding analyses by washing with ice cold binding buffer (phosphate buffered saline with 0.9 mM CaCl2, 0.49 mM MgSO4 and 1 mg/ml BSA). The cells were then incubated on ice for 90 minutes with different concentrations (0-100 ug/ml) of synthetic peptides (listed in Table 1, infra), in 0.5 ml of binding buffer per well. […] The labelled ligand was added and then incubated for 60 minutes at 0° C. after which the cells were washed five times with ice cold binding buffer. The washed cells were then lysed for 60 minutes at room temperature in a lysis buffer (1% Triton X-100, 10% glycerol, 20 mM Tris-HCl, pH 7.5). Solubilized radioactivity was determined in a gamma counter. Competing activities of synthetic peptides were compared to standard curves, using unlabelled ligand.
In Table 2, "+++" means <30 μM; "++" from 30-60 μM; "+" 60-150 μM; and "-", >150 μM.

PDGF-α receptor = target: T2, PDGF-α receptor (Homo sapiens, UniProt P16234); test: Competition with 125I-PDGF-AA for binding to AG1518 fibroblasts
T2 construct: cultures of human foreskin fibroblast cell line AG1518; endogenous in cells; host or cells: AG1518 human foreskin fibroblasts
Procedure: as §1, §2

EGF receptor [2] = target: T3, EGF receptor (Homo sapiens, UniProt P00533); test: Competition with 125I-EGF for binding to AG1518 fibroblasts
T3 construct: cultures of human foreskin fibroblast cell line AG1518; endogenous in cells; host or cells: human foreskin fibroblasts (AG1518)
Procedure: as §1, §2

[3] = test system: human foreskin fibroblasts; test: Ligand stimulated [3H]thymidine incorporation; type: cell-based
Text: The possible role of peptide 16T as an antagonist for PDGF activity in vivo was investigated. Following the methodology of Betsholtz et al., J. Cell Physiol 118: 203-210 (1984), the disclosure of which is incorporated by reference, [^3 H] thymidine incorporation by human fibroblasts in the presence of various peptides was studied.

[4] = test system: human foreskin fibroblast cells; test: Inhibition of 125I-ligand internalization and degradation (TCA non-precipitatable radioactivity); type: cell-based; conditions: four hours at 37° C.
Procedure: To do this, confluent human foreskin fibroblast cells in 12 well dishes were washed once with 1.0 ml of Ham's F-12 medium, supplemented with 1 mg/ml BSA. As described supra, those cells to be tested later for ^125 I-PDGF-BB degradation were preincubated with PDGF-AA to down regulate α receptors. […] The mixtures were incubated for four hours at 37° C., the incubation medium was removed, and then precipitated with trichloroacetic acid at 10% final concentration. The amount of trichloroacetic acid non-precipitatable radioactivity in cell culture medium was taken as an estimate of ligand degradation--i.e., it represents ligand that had been internalized, degraded and released into the medium in the form of free ^125 I, ^[…] or low molecular weight fragments. This parameter was defined after four hours of incubation at 37° C.

PDGF-α or β receptors = test: PDGF receptor internalization and down regulation; type: cell-based, human; conditions: four hours at 37° C.; surface receptors estimated with 125I-PDGF-BB
Procedure: As binding of PDGF to receptors leads to receptor internalization and down regulation, investigations were carried out to determine whether the interaction of PDGF and peptide […] led to the internalization and down regulation of receptors. To test this, confluent cells, as described supra, were washed once with binding buffer at 37° C., followed by incubation with different concentrations of synthetic peptide (0.5 ml of PBS containing 1 mg/ml BSA). Following this, the cells were incubated at 37° C. for four hours, followed by washing with 1 ml of ice cold buffer consisting of 20 mM Na-acetate, 150 mM NaCl, 0.2% BSA adjusted to pH 3.7 with acetic acid. The cells were then incubated for 10 minutes on ice in buffer, followed by two washings with 1 ml binding buffer, at pH 7.4. The number of PDGF receptors on the cell surface was estimated by incubation with ^125 I-PDGF-BB (~50,000cpm) in 0.5 ml binding buffer for 60 minutes on ice, followed by washing, lysis and determination of cell bound radioactivity.

PDGF receptors = test: PDGF-BB induced receptor dimerization and autophosphorylation in intact cells; type: cell-based, human; conditions: PDGF-BB 300 ng/ml, intact fibroblasts
Procedure: (§3) Confluent human foreskin fibroblast cells were used (25 cm^2 dishes of cultures). The cells were washed twice with binding buffer, as described supra, with 1 mg/ml BSA added thereto. This was followed by 90 minutes of incubation with one of synthetic peptides 16, […], 20 and […] on ice. […] A dimerization assay was then carried out, basically following Eriksson et al., Growth Factors 6: 1-14 (1992). Essentially, receptors were cross linked for 20 minutes at room temperature in 1 mM BS^3 (Bis(sulfosuccinimidyl)suberate) in lysis buffer (0.5% Triton X-100, 0.5% deoxycholate, […], pH 7.4, 150 mM NaCl, 10 mM EDTA, 1 mM PMSF (phenylmethylsulfonyl fluoride), 1% Trasylol (aprotinin), 100 μM ortovandat, a phosphatase inhibitor). Cross linking was quenched by adding 70 mM methylammonium chloride for 10 minutes. Samples were then subjected to SDS gel electrophoresis in 4% slab gels, followed by electroblotting on to nitrocellulose membranes. The blocked membranes were incubated for two hours with affinity purified phosphotyrosine antibodies (Ek et al., J. Biol. Chem. 259: 1145-11152 (1984)), followed by three washes. Blots were then incubated for 45 minutes with peroxidase conjugated, affinity purified swine antirabbit IgG immunoglobulin. After an additional three washes, complexes were visualized using the ECL developing system.

EGF receptor [5] = target: T3, EGF receptor; test: EGF induced receptor dimerization and autophosphorylation in intact cells; type: cell-based; conditions: EGF 300 ng/ml, intact fibroblasts
Procedure: as §3

PDGF-β receptor [6] = target: T4, PDGF-β receptor (Sus scrofa, UniProt A0A8W4FFG6); test: Autophosphorylation and dimerization of partially purified PDGF-β receptor; type: biochemical, porcine; conditions: nearly complete for 16T, complete for 16; about 100 ng receptor, 100 ng PDGF-BB, 40 ul
T4 construct: from Triton X-100 solubilized porcine uterus membranes and purified up to the Mono-Q chromatography step; from tissue; host or cells: porcine uterus membranes
Procedure: A preparation of PDGF-β receptor, from Triton X-100 solubilized porcine uterus membranes and purified up to the Mono-Q chromatography step of Ronnstrand et al., J. Biol. Chem. 262: 2929-2932 (1987), was made, and the autophosphorylation assay described therein was carried out.
Approximately 100 ng of the receptor was incubated for 5 minutes at 0° C. with peptide 16T or peptide 20, at different concentrations. […] Four ul of 150 μM [^32 P]ATP (containing 5×10^6 cpm of radioactivity) was added, followed by an additional 10 minutes of incubation at 0° C. Incorporation of radioactivity was terminated by adding 5 μl of 15 mM unlabelled ATP and 5 μl of 40 mM phenylphosphate. Samples were cross linked by incubating with 0.5 mM DSS (12.5 mM, in dimethyl sulfoxide) for 30 minutes at room temperature. The cross linking reaction was blocked by adding 50 mM methylammonium chloride, 20 mM Hepes, pH 7.4.

T2 sequence (P16234 24-1089): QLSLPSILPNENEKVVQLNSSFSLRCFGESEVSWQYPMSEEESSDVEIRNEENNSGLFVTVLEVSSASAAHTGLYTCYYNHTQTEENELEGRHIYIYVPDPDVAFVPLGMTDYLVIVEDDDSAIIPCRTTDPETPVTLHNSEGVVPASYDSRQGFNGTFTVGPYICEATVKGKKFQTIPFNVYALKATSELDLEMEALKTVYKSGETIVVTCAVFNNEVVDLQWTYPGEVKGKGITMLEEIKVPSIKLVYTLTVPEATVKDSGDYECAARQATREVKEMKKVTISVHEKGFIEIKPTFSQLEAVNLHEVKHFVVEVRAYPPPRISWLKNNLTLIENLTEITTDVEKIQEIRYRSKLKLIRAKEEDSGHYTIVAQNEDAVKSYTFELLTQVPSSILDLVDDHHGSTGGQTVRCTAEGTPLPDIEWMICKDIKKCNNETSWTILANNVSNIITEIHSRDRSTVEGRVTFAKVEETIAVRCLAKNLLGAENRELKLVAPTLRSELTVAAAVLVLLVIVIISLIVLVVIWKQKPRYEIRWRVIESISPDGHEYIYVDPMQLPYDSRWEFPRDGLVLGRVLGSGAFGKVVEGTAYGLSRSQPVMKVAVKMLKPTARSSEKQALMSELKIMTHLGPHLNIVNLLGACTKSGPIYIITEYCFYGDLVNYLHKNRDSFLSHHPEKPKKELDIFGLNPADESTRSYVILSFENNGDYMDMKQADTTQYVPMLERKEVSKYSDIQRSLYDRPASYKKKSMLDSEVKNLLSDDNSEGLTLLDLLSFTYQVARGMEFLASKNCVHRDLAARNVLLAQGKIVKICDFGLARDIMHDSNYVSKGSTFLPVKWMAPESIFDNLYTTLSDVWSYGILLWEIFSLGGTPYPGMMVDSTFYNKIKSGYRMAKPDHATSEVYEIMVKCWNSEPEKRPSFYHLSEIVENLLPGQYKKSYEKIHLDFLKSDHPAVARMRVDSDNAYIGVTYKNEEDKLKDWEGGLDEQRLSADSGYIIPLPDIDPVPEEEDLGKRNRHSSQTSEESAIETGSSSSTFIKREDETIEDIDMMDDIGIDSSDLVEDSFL
T3 sequence (P00533 25-1210): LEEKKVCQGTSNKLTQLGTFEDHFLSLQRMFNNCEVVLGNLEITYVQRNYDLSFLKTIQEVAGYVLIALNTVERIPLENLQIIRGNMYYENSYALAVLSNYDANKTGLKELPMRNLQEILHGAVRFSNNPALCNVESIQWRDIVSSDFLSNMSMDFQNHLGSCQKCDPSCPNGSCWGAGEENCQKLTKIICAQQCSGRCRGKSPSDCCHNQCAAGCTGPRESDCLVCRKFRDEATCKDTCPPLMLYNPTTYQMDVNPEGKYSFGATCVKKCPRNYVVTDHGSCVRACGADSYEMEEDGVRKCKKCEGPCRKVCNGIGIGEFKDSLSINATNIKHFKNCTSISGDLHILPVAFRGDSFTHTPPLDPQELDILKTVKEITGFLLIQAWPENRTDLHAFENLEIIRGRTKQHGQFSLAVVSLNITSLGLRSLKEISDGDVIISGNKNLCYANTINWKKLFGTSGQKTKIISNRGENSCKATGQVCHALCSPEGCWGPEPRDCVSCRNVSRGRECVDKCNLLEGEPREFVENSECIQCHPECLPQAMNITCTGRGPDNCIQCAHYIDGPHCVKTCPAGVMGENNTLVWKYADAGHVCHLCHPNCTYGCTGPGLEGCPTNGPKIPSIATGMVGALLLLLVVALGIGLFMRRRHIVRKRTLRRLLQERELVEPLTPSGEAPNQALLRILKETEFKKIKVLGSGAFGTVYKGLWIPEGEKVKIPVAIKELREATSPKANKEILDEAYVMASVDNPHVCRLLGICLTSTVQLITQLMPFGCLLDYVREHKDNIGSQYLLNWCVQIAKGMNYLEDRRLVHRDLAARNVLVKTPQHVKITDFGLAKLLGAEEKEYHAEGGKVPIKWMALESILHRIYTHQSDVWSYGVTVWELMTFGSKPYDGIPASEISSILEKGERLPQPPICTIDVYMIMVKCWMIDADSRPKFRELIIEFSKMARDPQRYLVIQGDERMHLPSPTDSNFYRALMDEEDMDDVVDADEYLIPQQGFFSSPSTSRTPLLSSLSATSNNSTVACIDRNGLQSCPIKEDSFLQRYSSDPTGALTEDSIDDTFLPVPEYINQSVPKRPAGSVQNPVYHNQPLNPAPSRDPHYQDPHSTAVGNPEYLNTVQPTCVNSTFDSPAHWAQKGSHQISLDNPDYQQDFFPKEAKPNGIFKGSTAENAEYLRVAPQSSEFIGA
T1 sequence (P09619 33-1106): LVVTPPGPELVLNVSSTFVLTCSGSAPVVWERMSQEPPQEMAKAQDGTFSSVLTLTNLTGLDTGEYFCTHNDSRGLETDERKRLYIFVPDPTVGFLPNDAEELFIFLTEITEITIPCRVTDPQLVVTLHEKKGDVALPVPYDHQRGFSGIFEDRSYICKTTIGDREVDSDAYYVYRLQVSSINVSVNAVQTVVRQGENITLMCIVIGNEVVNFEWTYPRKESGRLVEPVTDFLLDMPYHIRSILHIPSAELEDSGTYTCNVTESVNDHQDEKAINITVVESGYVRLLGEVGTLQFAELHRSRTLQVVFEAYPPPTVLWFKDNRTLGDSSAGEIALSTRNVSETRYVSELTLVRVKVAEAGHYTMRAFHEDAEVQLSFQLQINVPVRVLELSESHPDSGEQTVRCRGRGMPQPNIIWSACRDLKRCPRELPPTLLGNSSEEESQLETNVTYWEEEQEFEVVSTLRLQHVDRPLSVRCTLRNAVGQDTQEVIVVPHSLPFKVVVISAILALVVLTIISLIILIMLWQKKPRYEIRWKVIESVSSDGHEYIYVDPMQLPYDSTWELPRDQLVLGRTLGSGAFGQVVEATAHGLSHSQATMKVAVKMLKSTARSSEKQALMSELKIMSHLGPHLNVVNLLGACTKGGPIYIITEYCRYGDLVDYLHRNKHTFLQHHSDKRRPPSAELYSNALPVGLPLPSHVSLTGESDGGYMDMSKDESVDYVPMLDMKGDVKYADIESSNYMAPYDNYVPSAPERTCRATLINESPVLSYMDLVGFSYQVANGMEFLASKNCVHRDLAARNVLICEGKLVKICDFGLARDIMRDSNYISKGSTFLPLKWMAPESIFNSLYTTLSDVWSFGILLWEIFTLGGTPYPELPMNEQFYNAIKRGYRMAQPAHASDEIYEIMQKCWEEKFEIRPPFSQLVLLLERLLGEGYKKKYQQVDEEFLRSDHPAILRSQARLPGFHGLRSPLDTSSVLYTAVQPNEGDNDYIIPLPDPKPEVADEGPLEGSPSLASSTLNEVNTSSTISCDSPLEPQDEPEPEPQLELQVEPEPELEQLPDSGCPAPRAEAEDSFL
T4 sequence (A0A8W4FFG6 32-1102): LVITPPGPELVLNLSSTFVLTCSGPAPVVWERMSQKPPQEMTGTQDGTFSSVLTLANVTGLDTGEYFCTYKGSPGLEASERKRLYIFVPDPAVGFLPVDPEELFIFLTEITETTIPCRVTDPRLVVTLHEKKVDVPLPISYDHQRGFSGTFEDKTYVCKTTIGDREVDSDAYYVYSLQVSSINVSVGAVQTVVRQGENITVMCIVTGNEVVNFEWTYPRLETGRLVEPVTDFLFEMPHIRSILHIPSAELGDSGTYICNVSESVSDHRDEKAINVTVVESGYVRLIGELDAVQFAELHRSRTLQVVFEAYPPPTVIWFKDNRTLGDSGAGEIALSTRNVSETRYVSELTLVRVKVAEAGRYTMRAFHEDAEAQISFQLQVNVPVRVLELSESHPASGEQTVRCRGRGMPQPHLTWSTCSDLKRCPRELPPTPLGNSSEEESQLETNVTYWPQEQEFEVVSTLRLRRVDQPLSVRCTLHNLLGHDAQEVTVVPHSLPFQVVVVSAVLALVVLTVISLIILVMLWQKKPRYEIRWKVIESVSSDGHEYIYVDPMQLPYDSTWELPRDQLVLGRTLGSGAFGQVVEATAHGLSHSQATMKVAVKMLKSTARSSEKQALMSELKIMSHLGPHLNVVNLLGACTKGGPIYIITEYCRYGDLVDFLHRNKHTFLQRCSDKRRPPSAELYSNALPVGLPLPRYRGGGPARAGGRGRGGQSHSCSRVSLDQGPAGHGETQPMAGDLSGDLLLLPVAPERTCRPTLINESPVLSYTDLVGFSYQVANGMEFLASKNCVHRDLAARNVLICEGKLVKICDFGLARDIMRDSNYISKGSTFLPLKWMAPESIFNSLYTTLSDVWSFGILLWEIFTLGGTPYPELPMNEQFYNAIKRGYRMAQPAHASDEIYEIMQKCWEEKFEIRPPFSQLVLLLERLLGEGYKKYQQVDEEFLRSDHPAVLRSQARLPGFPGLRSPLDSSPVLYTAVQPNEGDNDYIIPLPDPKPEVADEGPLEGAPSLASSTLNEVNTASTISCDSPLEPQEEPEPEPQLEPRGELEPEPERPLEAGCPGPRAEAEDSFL

## CC[C@H](C)[C@H](NC(=O)[C@H](CCC(=O)O)NC(=O)[C@H](Cc1c(-c2ccc(SC)cc2)[nH]c2ccccc12)NC(=O)[C@@H](NC(=O)[C@H](CC(C)C)NC(=O)[C@H](Cc1ccccc1)NC(=O)[C@H](CC(N)=O)NC(=O)[C@H](C)N)C(C)C)C(=O)N[C@H](C(=O)N[C@@H](CCCNC(=N)N)C(=O)N[C@@H](CCCCN)C(=O)N[C@@H](CCCCN)C(=O)N1CCC[C@H]1C(=O)O)C(C)C [*16T, Ala Asn Phe Leu Val Xaa Glu Ile Val Arg Lys Lys Pro] (H-ANFLV[X1]EIVRKKP-OH; N-terminus and C-terminus assumed)
PDGF-β receptor [1]
  Receptor competing activity, PDGF-BB binding (in words): effective competitor; also recorded: far more efficient in competing with PDGF for receptor binding
PDGF-α receptor; AG1518 cells
  Receptor competing activity, PDGF-AA binding (in words): higher activity; also recorded: effective competitor
PDGF-α receptor; α receptor
  50% competition for receptor binding: Forty-four
EGF receptor [2]
  Competition for binding of 125I-EGF to the EGF receptor (in words): none of peptides 16, 16T, 20 and 20T compete
[3]; PDGF-AA, PDGF-BB or EGF stimulation
  Effect on ligand stimulated [3H]thymidine incorporation (in words): did inhibit PDGF-AA and PDGF-BB induced mitogenicity, but also EGF induced mitogenicity
[3]; no ligand
  Effect on background [3H]thymidine incorporation (in words): lowered background incorporation of [^3 H] thymidine dramatically
[3]; peptide present, no ligand, mean of duplicates
  [3H]thymidine incorporation, Control: 46 cpm
[3]; peptide present, stimulated with EGF, mean of duplicates
  [3H]thymidine incorporation, EGF: 119 cpm
[3]; peptide present, stimulated with PDGF-AA, mean of duplicates
  [3H]thymidine incorporation, PDGF-AA: 90 cpm
[3]; peptide present, stimulated with PDGF-BB, mean of duplicates
  [3H]thymidine incorporation, PDGF-BB: 102 cpm
[4]
  Inhibition of 125I-PDGF-AA degradation (in words): most effective
[4]; α receptors down regulated
  Inhibition of 125I-PDGF-BB degradation (in words): most potent
PDGF-α or β receptors
  Down regulation of PDGF receptors (in words): did not downregulate
PDGF receptors
  Inhibition of PDGF induced autophosphorylation and dimerization: about 55%
EGF receptor [5]
  Effect on EGF induced autophosphorylation and dimerization (in words): no effect
PDGF-β receptor [6]
  Amount of peptide giving complete inhibition of dimerization and autophosphorylation: 5 µg
